Reference: US4659734A, “Olinecarboxylic acid derivatives” (Nippon Shinyaku Co., Ltd., priority 1983, dated 1987)
In brackets after ≈: the same amount, converted by molar mass. Entries after “also recorded” stand apart in the source; their conditions may differ.

Tests used:
[1] = tested on: Pseudomonas aeruginosa E-2; experiment: Ascending urinary tract infection; type: in vivo, ICR female mice
Experimental: ICR Female mice (body weight 20±1 grams) of SPE strain were used in the experiments. The mice were not given any water for seventeen hours, then compulsorily urinated, anesthesized by the administration of 60 mg/kg of pentobarbital into the abdominal cavity, then 1.5×10^5 of Pseudomonas aeruginosa E-2 strain were impregnated into the bladder via the urinary tract, and the external urinary meatus was stopped for four hours by a pin clip, whereupon the mice were infected in the ascending urinary tract.
The compound of Example 22b was given once orally, 4 hours after infection, then twice a day, and the administration was continued for three days. On the fourth day, the kidney was isolated, homogenized in a physiological saline solution, and the number of bacteria was calculated on suitable medium such as, for example, Drigalski medium. If the number of bacteria per one gram of kidney was less than […], then the compound was judged as "effective".

[2] = tested on: Staphylococcus aureus Smith; experiment: Minimum growth inhibiting concentration, Japan Chemotherapeutic Society method; type: cell-based; settings: Gram +, read-out: Minimum Growth Inhibiting Concn
Experimental: (§1) The Antibacterial activity of the compounds of Examples 14, 13, 22b, 21 and 15 was determined in accordance with the method of Japan Chemotherapeutic Society (cf. Nippon Kagaku Ryoho Gakkai Shi, volume 29, number 1, pages 76 to 79, 1981) and the results are reported in Table 1, which follows.

[3] = tested on: Staphylococcus aureus 209-PJC; experiment: as above; type: cell-based; settings: Gram +, read-out: Minimum Growth Inhibiting Concn
Experimental: as §1

[4] = tested on: Klebsiella pneumoniae K-1966; experiment: as above; type: cell-based; settings: K1966; Klebsiella pneumoniae K-1966, Gram -; read-out: Minimum Growth Inhibiting Concn
Experimental: as §1

Escherichia coli KC-14 [5] = experiment: as above; type: cell-based; settings: KC14; Escherichia coli KC-14, Gram -; read-out: Minimum Growth Inhibiting Concn
Experimental: as §1

[6] = tested on: Acinetobacter calcoacelicus 54; experiment: as above; type: cell-based; settings: Acinetobacter calcoacelicus 54, Gram -; read-out: Minimum Growth Inhibiting Concn
Experimental: as §1

[7] = tested on: Alcaligenes faecalis ATCC 8750; experiment: as above; type: cell-based; settings: ATCC8750; Alcaligenes faecalis ATCC 8750, Gram -; read-out: Minimum Growth Inhibiting Concn
Experimental: as §1

[8] = tested on: Pseudomonas aeruginosa No. 12; experiment: as above; type: cell-based; settings: Pseudomonas aeruginosa No. 12, Gram -; read-out: Minimum Growth Inhibiting Concn
Experimental: as §1

[9] = tested on: Listeria monocytogenes RIMD 1205020; experiment: as above; type: cell-based; settings: RIMD1205020; Listeria monocytogenes RIMD 1205020, Gram +; read-out: Minimum Growth Inhibiting Concn
Experimental: as §1

[10] = tested on: Pseudomonas aeruginosa E-2; experiment: as above; type: cell-based; settings: E2; Pseudomonas aeruginosa E-2, Gram -; read-out: Minimum Growth Inhibiting Concn
Experimental: as §1

[11] = tested on: Escherichia coli NIHJ JC-2; experiment: as above; type: cell-based; settings: NIHJJC2; Escherichia coli NIHJ JC-2, Gram -; read-out: Minimum Growth Inhibiting Concn
Experimental: as §1

Proteus vulgaris DX-19 = experiment: as above; type: cell-based; settings: DX19; Proteus vulgaris DX-19, Gram -; read-out: Minimum Growth Inhibiting Concn
Experimental: as §1

[12] = tested on: Serracia marcescens IFO 3736; experiment: as above; type: cell-based; settings: Serracia marcescens IFO 3736, Gram -; read-out: Minimum Growth Inhibiting Concn
Experimental: as §1

[13] = tested on: Micrococcus luteus ATCC 9341; experiment: as above; type: cell-based; settings: ATCC9341; Micrococcus luteus ATCC 9341, Gram +; read-out: Minimum Growth Inhibiting Concn
Experimental: as §1

Proteus mirabilis 181 = experiment: as above; type: cell-based; settings: Proteus mirabilis 181, Gram -; read-out: Minimum Growth Inhibiting Concn
Experimental: as §1

[14] = tested on: Pseudomonas maltophilia ATCC 13637; experiment: as above; type: cell-based; settings: Stenotrophomonas maltophilia, ATCC13637; Pseudomonas maltophilia ATCC 13637, Gram -; read-out: Minimum Growth Inhibiting Concn
Experimental: as §1

[15] = tested on: Pseudomonas cepacia ATCC 25416; experiment: as above; type: cell-based; settings: Burkholderia cepacia, ATCC25416; Pseudomonas cepacia ATCC 25416, Gram -; read-out: Minimum Growth Inhibiting Concn
Experimental: as §1

[16] = tested on: Klebsiella pneumoniae K-1966; experiment: Mouse intraperitoneal infection, survival after one week; type: in vivo, ddY strain mice; settings: K1966, po; Klebsiella pneumoniae K-1966, 3 × 10^3 per mouse; one dose per os 2 h after infection
Experimental: (§2) ddY--Strain mice (male; body weight 20±1 grams) of SPF were innoculated with the bacteria set forth in Table 2 by administration of a supension of the bacterial in 4% mucin solution into the abdominal cavity. A compound of the invention was given one time per os two hours after the infection, and, from the survival rate after one week. 50% effective doses (ED50) were calculated by the Behrens-Karber method.

Escherichia coli KC-14 [17] = experiment: as above; type: in vivo, ddY strain mice; settings: KC14, po; Escherichia coli KC-14, 5 × 10^4 per mouse; one dose per os 2 h after infection
Experimental: as §2

[18] = tested on: Acimetobacter calcoaceticus; experiment: as above; type: in vivo, ddY strain mice; settings: po, 1 × 10^7 per mouse, one dose per os 2 h after infection
Experimental: as §2

Serracia marcescens T-55 = experiment: as above; type: in vivo, ddY strain mice; settings: po; Serracia marcescens T-55, 5 × 10^6 per mouse; one dose per os 2 h after infection
Experimental: as §2

[19] = Excretion into urine and recovery, disc method; type: in vivo, ddY strain mice; settings: 60 mg/kg per os; for Amount excreted into Urine: average ± standard error
Experimental: In the measurement of excretion into urine, ddY strain mice (male; body weights 30±2 grams) were used. Sixty mg/kg of the compound of Example 22b was administered per os and the mice were fed in metabolic cages and their urine was collected.
Therefore, in the quantitative determination, the calibration curve of the compound of Example 21, calculated by the disc method using Escherichia coli NIHJ strain and using the compound dissolved in phosphoric acid buffer (pH 8.0; 1/15M) was used. Table 5 reports the excretion into urine with respect to time, total recovery amount and recovery rate of the compound of Example 22b.

Cc1csc2c(C(=O)O)c(=O)c3cc(F)c(N4CCN(C)CC4)cc3n12 [Example 22b, 7-fluoro-1-methyl-8-(4-methyl-1-piperazinyl)-5-oxo-5H-thiazolo(3,2-a)-quinoline-4-carboxylic acid]
Number Of Mice Where Compound Was Effective/Total Mice Tested ([1]; 3.13 mg/kg oral): 1/7 | Number Of Mice Where Compound Was Effective/Total Mice Tested ([1]; 6.25 mg/kg oral): 4/7 | Number Of Mice Where Compound Was Effective/Total Mice Tested ([1]; 12.5 mg/kg oral): 4/7 | Number Of Mice Where Compound Was Effective/Total Mice Tested ([1]; 25 mg/kg oral): 6/7 | Number Of Mice Where Compound Was Effective/Total Mice Tested ([1]; 50 mg/kg oral): 7/7 | Number Of Mice Where Compound Was Effective/Total Mice Tested ([1]; 100 mg/kg oral, 4 h after infection then twice a day, three days): 7/7 | ED50 ([1]; Pseudomonas aeruginosa, E2, in Mus musculus, 72 h, ascending urinary tract infection, oral, three days, read-out: 50% Effective Dose): 8 mg/kg | MIC [2]: 0.053 µg/mL (≈ 0.141 µM) | MIC [3]: 0.013 µg/mL (≈ 0.0346 µM) | MIC [4]: 0.05 µg/mL (≈ 0.133 µM) | MIC (Escherichia coli KC-14 [5]): 0.013 µg/mL (≈ 0.0346 µM) | MIC [6]: 0.2 µg/mL (≈ 0.533 µM) | MIC [7]: 0.78 µg/mL (≈ 2.08 µM) | MIC [8]: 0.78 µg/mL (≈ 2.08 µM) | MIC [9]: 0.2 µg/mL (≈ 0.533 µM) | MIC [10]: 0.39 µg/mL (≈ 1.04 µM) | MIC [11]: 0.025 µg/mL (≈ 0.0666 µM) | MIC (Proteus vulgaris DX-19): 0.1 µg/mL (≈ 0.266 µM) | MIC [12]: 0.39 µg/mL (≈ 1.04 µM) | MIC [13]: 0.78 µg/mL (≈ 2.08 µM) | MIC (Proteus mirabilis 181): 0.2 µg/mL (≈ 0.533 µM) | MIC [14]: 0.025 µg/mL (≈ 0.0666 µM) | MIC [15]: 0.2 µg/mL (≈ 0.533 µM) | ED50 [16]: 2.7 mg/kg | ED50 (Escherichia coli KC-14 [17]): 1.1 mg/kg | ED50 [18]: 17.5 mg/kg | ED50 (Serracia marcescens T-55): 5.4 mg/kg | Amount excreted into Urine ([19]; 0-3 hrs): 268.1 ± 84.4 µg | Total Recovery in urine ([19]; 0-24 hrs): 813.9 µg | excretion into urine (in words) ([19]; mice): excreted into urine almost completely; also recorded: excreted into urine promptly and in high concentration which is continued and exhibits high recovery rate | metabolism (in words) ([19]; mice): metabolized to the compound of Example 21 | Amount excreted into Urine ([19]; 3-6 hrs): 108.3 ± 33.1 µg | Amount excreted into Urine ([19]; 6-24 hrs): 437.5 ± 21.8 µg
